From the NIST ThermoML archive (doi:10.1016/j.tca.2013.07.012)
± gives the expanded uncertainty stated by the source.

Experiments:
[1] = 101 kPa, Liquid, Vibrating tube method
[2] = xn = mol fraction of the nth substance listed; conditions: 101 kPa, Liquid, Vibrating tube method, x2 = 0

OCC(O)CO [glycerol]
[1]
Conditions	mass density [kg/m3]
278.15 K	1270.87 ± 0.22
288.15 K	1264.4 ± 0.22
293.15 K	1260.99 ± 0.22
298.15 K	1257.91 ± 0.22
308.15 K	1251.66 ± 0.22
323.15 K	1242.11 ± 0.21
333.15 K	1235.71 ± 0.21
348.15 K	1225.79 ± 0.21

O [water]
[1]
Conditions	mass density [kg/m3]
274.15 K	999.9 ± 0.1
275.15 K	999.94 ± 0.1
276.15 K	999.96 ± 0.1
277.15 K	999.97 ± 0.12
278.15 K	999.96 ± 0.1
279.15 K	999.94 ± 0.1
280.15 K	999.9 ± 0.1
281.15 K	999.85 ± 0.1
282.15 K	999.78 ± 0.1
283.15 K	999.7 ± 0.1
323.15 K	988.03 ± 0.11
333.15 K	983.19 ± 0.11
348.15 K	974.84 ± 0.11

O [water] + OCC(O)CO
[2]
Conditions	mass density [kg/m3]
274.15 K	999.9 ± 0.1
275.15 K	999.94 ± 0.1
276.15 K	999.96 ± 0.1
277.15 K	999.97 ± 0.12
278.15 K	999.96 ± 0.1
279.15 K	999.94 ± 0.1
280.15 K	999.9 ± 0.1
281.15 K	999.85 ± 0.1
282.15 K	999.78 ± 0.1
283.15 K	999.7 ± 0.1
323.15 K	988.03 ± 0.11
333.15 K	983.19 ± 0.11
348.15 K	974.84 ± 0.11
